Experimental data: PubChem BioAssay AID330 (DTP/NCI, 2004)
Several values for one entry are separate records, joined by “and”; a condition that tells them apart may be missing. Identical values can stand only once. Toxic doses and inconclusive results are not listed. Rule for the calls: active = survival T/C of 150% or more; inactive = T/C below 125% in these data.

System: P388 leukemia ip, CD2F1 mice, survival T/C
Assay: NCI In Vivo Anticancer Drug Screen. Data for tumor model P388 Leukemia (intraperitoneal) in CD2F1 (CDF1) mice
Details: endpoint: median survival time, higher = longer survival
Procedure, shortened: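 Mice carrying the transplanted tumor received test compound or vehicle. Survival was recorded in each group, and the value is the treated-group measurement divided by that of the vehicle-treated control group.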

[1] = dose: 50.0 mg/kg/injection, schedule: Q01DX009 (ip), vehicle: Klucel (hydroxypropylcellulose) (HPC)
[2] = dose: 50.0 mg/kg/injection, schedule: Q01DX009 (ip), vehicle: suspension in saline
[3] = dose: 100.0 mg/kg/injection, schedule: Q01DX009 (ip), vehicle: suspension in saline
[4] = dose: 50.0 mg/kg/injection, schedule: Q01DX005 (ip), vehicle: Klucel (hydroxypropylcellulose) (HPC)
[5] = dose: 100.0 mg/kg/injection, schedule: Q01DX005 (ip), vehicle: Klucel (hydroxypropylcellulose) (HPC)
[6] = dose: 100.0 mg/kg/injection, schedule: Q01DX009 (ip), vehicle: saline with Tween-80
[7] = dose: 200.0 mg/kg/injection, schedule: Q01DX009 (ip), vehicle: saline with Tween-80
[8] = dose: 60.0 mg/kg/injection, schedule: Q01DX005 (ip), vehicle: saline with Tween-80
[9] = dose: 120.0 mg/kg/injection, schedule: Q01DX005 (ip), vehicle: saline with Tween-80
[10] = dose: 240.0 mg/kg/injection, schedule: Q01DX005 (ip), vehicle: saline with Tween-80
[11] = dose: 30.0 mg/kg/injection, schedule: Q01DX005 (ip), vehicle: saline with Tween-80
[12] = dose: 6.25 mg/kg/injection, schedule: Q01DX009 (ip), vehicle: saline with Tween-80
[13] = dose: 12.5 mg/kg/injection, schedule: Q01DX009 (ip), vehicle: saline with Tween-80

Measured: T/C

O=C(Nc1ccc(C2=NCCN2)cc1)c1cc2ccc(C3=NCCN3)cc2[nH]1
inactive: dose: 12.5 mg/kg/injection, schedule: Q04DX003 (ip), vehicle: saline 101 % of control | dose: 25.0 mg/kg/injection, schedule: Q04DX003 (ip), vehicle: saline 112 % of control | dose: 50.0 mg/kg/injection, schedule: Q04DX003 (ip), vehicle: saline 118 % of control

CCCCCCCCSCc1ccc(Nc2ccc(Nc3ccc(CSCCCCCCCC)cc3)cc2)cc1
inactive: dose: 50.0 mg/kg/injection, schedule: Q01DX006 (ip), vehicle: other 102 % of control | dose: 50.0 mg/kg/injection, schedule: Q01DX009 (ip), vehicle: acetone 101 % of control | dose: 100.0 mg/kg/injection, schedule: Q01DX006 (ip), vehicle: other 116 % of control | dose: 100.0 mg/kg/injection, schedule: Q01DX009 (ip), vehicle: acetone 107 % of control | dose: 200.0 mg/kg/injection, schedule: Q01DX006 (ip), vehicle: other 117 % of control

CCOC(=O)c1cnc2c(c(Br)cc3c4cc(Br)ccc4[nH]c32)c1Cl
inactive: dose: 6.25 mg/kg/injection, schedule: Q01DX009 (ip), vehicle: saline 112 % of control | dose: 12.5 mg/kg/injection, schedule: Q01DX009 (ip), vehicle: saline 107 % of control | dose: 25.0 mg/kg/injection, schedule: Q01DX009 (ip), vehicle: saline 111 % of control | dose: 50.0 mg/kg/injection, schedule: Q01DX009 (ip), vehicle: saline 97 % of control | dose: 100.0 mg/kg/injection, schedule: Q01DX009 (ip), vehicle: saline 91 % of control | dose: 200.0 mg/kg/injection, schedule: Q01DX009 (ip), vehicle: saline 88 % of control

CCCCOc1ccc(C(=O)OCCNC2CCCCC2)cc1N
inactive: dose: 6.25 mg/kg/injection, schedule: Q01DX009 (ip), vehicle: Klucel (hydroxypropylcellulose) (HPC) 100 % of control | dose: 12.5 mg/kg/injection, schedule: Q01DX009 (ip), vehicle: Klucel (hydroxypropylcellulose) (HPC) 101 % of control | dose: 25.0 mg/kg/injection, schedule: Q01DX009 (ip), vehicle: Klucel (hydroxypropylcellulose) (HPC) 93 % of control | [1] 91 % of control

NC(=O)NN(Cc1ccc2c(c1)OCO2)N=O
inactive: [1] 99 % of control | dose: 100.0 mg/kg/injection, schedule: Q01DX009 (ip), vehicle: Klucel (hydroxypropylcellulose) (HPC) 107 % of control | dose: 200.0 mg/kg/injection, schedule: Q01DX009 (ip), vehicle: Klucel (hydroxypropylcellulose) (HPC) 91 % of control

CCC1CCCN(CCc2c(C3(CO)CCC(CO)c4c(CCN5CCCC(CC)C5)c5ccccc5n43)[nH]c3ccccc23)C1 (configuration not stated)
inactive: dose: 0.7 mg/kg/injection, schedule: Q01DX009 (ip), vehicle: saline with Tween-80 106 % of control | dose: 1.4 mg/kg/injection, schedule: Q01DX009 (ip), vehicle: saline with Tween-80 102 % of control | dose: 2.8 mg/kg/injection, schedule: Q01DX009 (ip), vehicle: saline with Tween-80 102 % of control

COc1ccc(SCC(=O)c2ccc([N+](=O)[O-])o2)cc1
inactive: [2] 114 % of control | [3] 104 % of control

CC(=O)NNC(=O)CCCCCCC(=O)NNC(C)=O
inactive: [4] 98 % of control | [5] 98 % of control

CCC[As](C)SCC1OC(OC(C)=O)C(OC(C)=O)C(OC(C)=O)C1OC(C)=O (configuration not stated)
inactive: dose: 50.0 mg/kg/injection, schedule: Q01DX009 (ip), vehicle: saline with Tween-80 110 % of control | [6] 102 % of control | [7] 118 % of control

c1ccc(CNc2cccc(NCc3ccccn3)n2)nc1
inactive: [4] 101 % of control | [5] 95 % of control | dose: 200.0 mg/kg/injection, schedule: Q01DX005 (ip), vehicle: Klucel (hydroxypropylcellulose) (HPC) 108 % of control

O=C1COC(C(O)(c2ccccc2)c2ccccc2)C(=O)N1 (configuration not stated)
inactive: [8] 107 % of control | [9] 102 % of control | [10] 98 % of control

CCCN(CCC)CCCCCO
inactive: dose: 50.0 mg/kg/injection, schedule: Q04DX003 (ip), vehicle: saline with Tween-80 104 % of control | dose: 100.0 mg/kg/injection, schedule: Q04DX003 (ip), vehicle: saline with Tween-80 100 % of control | dose: 200.0 mg/kg/injection, schedule: Q04DX003 (ip), vehicle: saline with Tween-80 100 % of control

Nc1nc(Cl)c(N=Nc2ccccc2)c(=O)[nH]1
inactive: dose: 7.5 mg/kg/injection, schedule: Q01DX005 (ip), vehicle: saline with Tween-80 111 % of control | dose: 15.0 mg/kg/injection, schedule: Q01DX005 (ip), vehicle: saline with Tween-80 105 % of control | [11] 99 % of control and 108 % of control | [8] 101 % of control and 109 % of control

O=C(CCCCC(=O)N/N=C/c1ccco1)N/N=C/c1ccco1
inactive: [8] 99 % of control | [9] 94 % of control | [10] 91 % of control

CN(C)c1ccc(/C=[N+](\[O-])C(C)(C)CO)cc1
inactive: [12] 100 % of control | [13] 102 % of control | dose: 25.0 mg/kg/injection, schedule: Q01DX009 (ip), vehicle: saline with Tween-80 100 % of control | [6] 96 % of control | [7] 97 % of control

COc1ccc(C2ON=C(c3cc(C)cc(Br)c3O)C2[N+](=O)[O-])cc1 (configuration not stated)
inactive: dose: 100.0 mg/kg/injection, schedule: Q04DX002 (ip), vehicle: saline with Tween-80 90 % of control | dose: 200.0 mg/kg/injection, schedule: Q04DX002 (ip), vehicle: saline with Tween-80 94 % of control | dose: 400.0 mg/kg/injection, schedule: Q04DX002 (ip), vehicle: saline with Tween-80 94 % of control

Cc1c2sc3ccccc3[nH]c2nc2[nH]c3ccccc3sc12
inactive: dose: 50.0 mg/kg/injection, schedule: Q01DX005 (ip), vehicle: saline with Tween-80 108 % of control | dose: 100.0 mg/kg/injection, schedule: Q01DX005 (ip), vehicle: saline with Tween-80 116 % of control | dose: 200.0 mg/kg/injection, schedule: Q01DX005 (ip), vehicle: saline with Tween-80 108 % of control

C(=Nc1ccccc1)Nc1ccccc1.[Cu+2]
inactive: [12] 100 % of control | [13] 104 % of control and 108 % of control

O=[N+]([O-])c1ccc2[nH]c3cnccc3c2c1
inactive: dose: 12.5 mg/kg/injection, schedule: Q01DX009 (ip), vehicle: other 106 % of control | dose: 25.0 mg/kg/injection, schedule: Q01DX009 (ip), vehicle: other 105 % of control | dose: 50.0 mg/kg/injection, schedule: Q01DX009 (ip), vehicle: other 108 % of control | dose: 100.0 mg/kg/injection, schedule: Q01DX009 (ip), vehicle: other 107 % of control

S=C(N/N=C/c1ccccn1)Nc1ccccn1
inactive: dose: 130.0 mg/kg/injection, schedule: Q04DX003 (ip), vehicle: Klucel (hydroxypropylcellulose) (HPC) 117 % of control | dose: 200.0 mg/kg/injection, schedule: Q04DX003 (ip), vehicle: Klucel (hydroxypropylcellulose) (HPC) 123 % of control | dose: 300.0 mg/kg/injection, schedule: Q04DX003 (ip), vehicle: Klucel (hydroxypropylcellulose) (HPC) 107 % of control

O=C1CSC2=NCCN12
inactive: [2] 101 % of control | [3] 107 % of control | dose: 200.0 mg/kg/injection, schedule: Q01DX009 (ip), vehicle: suspension in saline 115 % of control

O=S(=O)(O)c1cc2cc(S(=O)(=O)O)c3nnc4cc(S(=O)(=O)O)cc5cc(S(=O)(=O)O)c(nnc6cc(S(=O)(=O)O)cc7cc(S(=O)(=O)O)c(nnc(c1)c2c3O)c(O)c76)c(O)c54
inactive: [11] 93 % of control | [8] 106 % of control and 91 % of control
